Assay results reported in ChEMBL document CHEMBL1201862, “PubChem BioAssay data set” (2004).
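Results reflect a 48-hour exposure of cells in 96-well plates to compound at five concentrations. GI50: concentration for 50% inhibition of growth.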 Activity calls are given as the source filed them. Rule as the data show it: active = GI50 up to about 1.1 µM and inactive = higher.

What was measured:
Experiment in all cases: NCI tumour cell line growth inhibition, 48 h
SN12C = tested on: SN12C
MDA-MB-231 = tested on: MDA-MB-231
COLO 205 = tested on: COLO 205
HOP-92 = tested on: HOP-92
UACC-257 = tested on: UACC-257
NCI/ADR-RES = tested on: NCI/ADR-RES
HCC 2998 = tested on: HCC 2998
T47D = tested on: T47D
M14 = tested on: M14
TK-10 = tested on: TK-10
NCI-H522 = tested on: NCI-H522
NCI-H226 = tested on: NCI-H226
NCI-H460 = tested on: NCI-H460
HCT-116 = tested on: HCT-116
MDA-MB-435 = tested on: MDA-MB-435
SW-620 = tested on: SW-620
UACC-62 = tested on: UACC-62
OVCAR-3 = tested on: OVCAR-3
SF-268 = tested on: SF-268
ACHN = tested on: ACHN
RPMI-8226 = tested on: RPMI-8226
A549 = tested on: A549
NCI-H23 = tested on: NCI-H23
U-251 = tested on: U-251
IGROV-1 = tested on: IGROV-1
K562 = tested on: K562
MDA-N = tested on: MDA-N
BT-549 = tested on: BT-549
LOX IMVI = tested on: LOX IMVI
EKVX = tested on: EKVX
SF-295 = tested on: SF-295
MCF7 = tested on: MCF7
HCT-15 = tested on: HCT-15
MOLT-4 = tested on: MOLT-4
PC-3 = tested on: PC-3
RXF 393 = tested on: RXF 393
Hs-578T = tested on: Hs-578T
UO-31 = tested on: UO-31
SNB-19 = tested on: SNB-19
OVCAR-4 = tested on: OVCAR-4
SR = tested on: SR
HL-60 = tested on: HL-60
HOP-62 = tested on: HOP-62
SK-OV-3 = tested on: SK-OV-3
CCRF-CEM = tested on: CCRF-CEM
KM12 = tested on: KM12
SK-MEL-28 = tested on: SK-MEL-28
OVCAR-5 = tested on: OVCAR-5
CAKI-1 = tested on: CAKI-1
OVCAR-8 = tested on: OVCAR-8
A498 = tested on: A498
SK-MEL-5 = tested on: SK-MEL-5
SF-539 = tested on: SF-539
786-0 = tested on: 786-0
SK-MEL-2 = tested on: SK-MEL-2
HT-29 = tested on: HT-29
DU-145 = tested on: DU-145
SNB-75 = tested on: SNB-75
Malme-3M = tested on: Malme-3M

O=c1c2cc(I)ccc2nc(SCc2nncs2)n1Cc1ccccc1
GI50 (SN12C): 23900 nM (inactive)
GI50 (MDA-MB-231): 16800 nM (inactive)
GI50 (COLO 205): 20200 nM (inactive)
GI50 (HOP-92): 3340 nM (inactive)
GI50 (UACC-257): 10500 nM (inactive)
GI50 (NCI/ADR-RES): > 100000 nM (inactive)
GI50 (HCC 2998): 16400 nM (inactive)
GI50 (T47D): 8930 nM (inactive)
GI50 (M14): 9060 nM (inactive)
GI50 (TK-10): 29500 nM (inactive)
GI50 (NCI-H522): 4780 nM (inactive)
GI50 (NCI-H226): 23800 nM (inactive)
GI50 (NCI-H460): 7620 nM (inactive)
GI50 (HCT-116): 11600 nM (inactive)
GI50 (MDA-MB-435): 19200 nM (inactive)
GI50 (SW-620): > 100000 nM (inactive)
GI50 (UACC-62): 13600 nM (inactive)
GI50 (OVCAR-3): 12300 nM (inactive)
GI50 (SF-268): 14100 nM (inactive)
GI50 (ACHN): 9330 nM (inactive)
GI50 (RPMI-8226): 6760 nM (inactive)
GI50 (A549): 22900 nM (inactive)
GI50 (NCI-H23): 25600 nM (inactive)
GI50 (U-251): 16900 nM (inactive)
GI50 (IGROV-1): 3890 nM (inactive)
GI50 (K562): 16700 nM (inactive)
GI50 (MDA-N): 23000 nM (inactive)
GI50 (BT-549): > 100000 nM (inactive)
GI50 (LOX IMVI): 29500 nM (inactive)
GI50 (EKVX): 7000 nM (inactive)
GI50 (SF-295): 13200 nM (inactive)
GI50 (MCF7): 35600 nM (inactive)
GI50 (HCT-15): 50200 nM
GI50 (MOLT-4): 8300 nM (inactive)
GI50 (PC-3): 13800 nM (inactive)
GI50 (RXF 393): 13600 nM (inactive)
GI50 (Hs-578T): 16300 nM (inactive)
GI50 (UO-31): 1170 nM (inactive)
GI50 (SNB-19): 19500 nM (inactive)
GI50 (OVCAR-4): 12600 nM (inactive)
GI50 (SR): 15400 nM (inactive)
GI50 (HL-60): 22100 nM (inactive)
GI50 (HOP-62): 20300 nM (inactive)
GI50 (SK-OV-3): 43700 nM (inactive)
GI50 (CCRF-CEM): 5710 nM (inactive)
GI50 (KM12): 11800 nM (inactive)
GI50 (SK-MEL-28): 90200 nM (inactive)
GI50 (OVCAR-5): 99500 nM (inactive)
GI50 (CAKI-1): 2150 nM (inactive)
GI50 (OVCAR-8): 36500 nM (inactive)
GI50 (A498): 19700 nM (inactive)
GI50 (SK-MEL-5): 6710 nM (inactive)
GI50 (SF-539): 22800 nM (inactive)
GI50 (786-0): 15000 nM (inactive)
GI50 (SK-MEL-2): 16100 nM (inactive)
GI50 (HT-29): 31800 nM (inactive)
GI50 (DU-145): 23100 nM (inactive)
GI50 (SNB-75): 19100 nM (inactive)

CN(C)CCNC(=O)c1cccc2nc3cccc(F)c3nc12
GI50 (SN12C): 1020 nM (active)
GI50 (MDA-MB-231): 1320 nM (inactive)
GI50 (COLO 205): 317 nM (active)
GI50 (HOP-92): 1220 nM (inactive)
GI50 (UACC-257): 1390 nM (inactive)
GI50 (NCI/ADR-RES): 1390 nM (inactive)
GI50 (HCC 2998): 1490 nM (inactive)
GI50 (T47D): 3310 nM (inactive)
GI50 (M14): 2010 nM (inactive)
GI50 (TK-10): 2000 nM (inactive)
GI50 (NCI-H522): 1050 nM (active)
GI50 (NCI-H226): 1240 nM (inactive)
GI50 (NCI-H460): 579 nM (active)
GI50 (HCT-116): 542 nM (active)
GI50 (MDA-MB-435): 1560 nM (inactive)
GI50 (SW-620): 650 nM (active)
GI50 (UACC-62): 2880 nM (inactive)
GI50 (OVCAR-3): 1990 nM (inactive)
GI50 (SF-268): 2310 nM (inactive)
GI50 (ACHN): 484 nM (active)
GI50 (RPMI-8226): 800 nM (active)
GI50 (A549): 530 nM (active)
GI50 (NCI-H23): 1500 nM (inactive)
GI50 (U-251): 1380 nM (inactive)
GI50 (IGROV-1): 1600 nM (inactive)
GI50 (K562): 1290 nM (inactive)
GI50 (MDA-N): 1460 nM (inactive)
GI50 (Malme-3M): 2040 nM (inactive)
GI50 (BT-549): 2230 nM (inactive)
GI50 (LOX IMVI): 614 nM (active)
GI50 (EKVX): 2160 nM (inactive)
GI50 (SF-295): 1520 nM (inactive)
GI50 (MCF7): 1480 nM (inactive)
GI50 (HCT-15): 1160 nM
GI50 (MOLT-4): 366 nM (active)
GI50 (PC-3): 1380 nM (inactive)
GI50 (RXF 393): 1540 nM (inactive)
GI50 (Hs-578T): 1410 nM (inactive)
GI50 (UO-31): 883 nM (active)
GI50 (SNB-19): 2210 nM (inactive)
GI50 (OVCAR-4): 1470 nM (inactive)
GI50 (SR): 570 nM (active)
GI50 (HL-60): 1480 nM (inactive)
GI50 (HOP-62): 1970 nM (inactive)
GI50 (CCRF-CEM): 1110 nM (active)
GI50 (KM12): 1420 nM (inactive)
GI50 (SK-MEL-28): 3010 nM (inactive)
GI50 (OVCAR-5): 2600 nM (inactive)
GI50 (CAKI-1): 973 nM (active)
GI50 (OVCAR-8): 843 nM (active)
GI50 (A498): 1910 nM (inactive)
GI50 (SK-MEL-5): 1130 nM (inactive)
GI50 (SF-539): 1860 nM (inactive)
GI50 (786-0): 653 nM (active)
GI50 (SK-MEL-2): 2130 nM (inactive)
GI50 (HT-29): 867 nM (active)
GI50 (DU-145): 2470 nM (inactive)
GI50 (SNB-75): 2620 nM (inactive)
